Key:
HEK293 = experiment: cells; assay type: functional, Homo sapiens, ATCC CRL1573; settings: Homo sapiens, ATCC CRL1573, HEK293; ASSAY_TEST Inhibition of Cell Viability; detection method Resazurin; Fluorescence (ex560/em590); MEDIA DMEM with 10% FBS; plate type 384well; TC; CORNING #3712; time 18 hr; read-out: CC50
Staphylococcus aureus = experiment: microbe, parasite or virus in culture; settings: ATCC 43300, 18 h, ASSAY_TEST Inhibition of Bacterial Growth, detection method Absorption (OD600), MEDIA CAMHB, plate type 384well, NBS, CORNING #3640
Description: Antibacterial activity against Staphylococcus aureus MRSA ATCC 43300 (CO-ADD:GP_020); MIC in CAMBH media, using NBS plates, by OD(600)

Escherichia coli = experiment: microbe, parasite or virus in culture; settings: ATCC 25922, 18 h, ASSAY_TEST Inhibition of Bacterial Growth, detection method Absorption (OD600), MEDIA CAMHB, plate type 384well, NBS, CORNING #3640
Description: Antibacterial activity against Escherichia coli ATCC 25922 (CO-ADD:GN_001); MIC in CAMBH media using NBS plates, by OD(600)

Klebsiella pneumoniae = experiment: microbe, parasite or virus in culture; settings: ATCC 700603, 18 h, ASSAY_TEST Inhibition of Bacterial Growth, detection method Absorption (OD600), MEDIA CAMHB, plate type 384well, NBS, CORNING #3640
Description: Antibacterial activity against Klebsiella pneumoniae MDR ATCC 70063 (CO-ADD:GN_003); MIC in CAMBH media using NBS plates, by OD(600)

Pseudomonas aeruginosa = experiment: microbe, parasite or virus in culture; settings: ATCC 27853, 18 h, ASSAY_TEST Inhibition of Bacterial Growth, detection method Absorption (OD600), MEDIA CAMHB, plate type 384well, NBS, CORNING #3640
Description: Antibacterial activity against Pseudomonas aeruginosa ATCC 27853 (CO-ADD:GN_042); MIC in CAMBH media using NBS plates, by OD(600)

Acinetobacter baumannii = experiment: microbe, parasite or virus in culture; settings: ATCC 19606, 18 h, ASSAY_TEST Inhibition of Bacterial Growth, detection method Absorption (OD600), MEDIA CAMHB, plate type 384well, NBS, CORNING #3640
Description: Antibacterial activity against Acinetobacter baumannii ATCC 19606 (CO-ADD:GN_034); MIC in CAMBH media using NBS plates, by OD600

Candida albicans = experiment: microbe, parasite or virus in culture; settings: ATCC 90028, ASSAY_TEST Inhibition of Fungal Growth, detection method Absorption (OD530), plate type 384well, NBS, CORNING #3640
Description: Antifungal activity against Candida albicans ATCC 90028 (CO-ADD:FG_001); MIC in YNB media using NBS plates, by OD630

Description for Cryptococcus neoformans: Antifungal activity against Cryptococcus neoformans H99 ATCC 208821 (CO-ADD:FG_002); MIC in YNB media using NBS plates, by Resazurin OD(600-570)

CN(Cc1ccccc1)C(=O)c1ncc([N+](=O)[O-])n1C
> 32 µg/mL: CC50 (HEK293) | MIC (Cryptococcus neoformans) | MIC (Staphylococcus aureus) | MIC (Escherichia coli) | MIC (Klebsiella pneumoniae) | MIC (Pseudomonas aeruginosa) | MIC (Acinetobacter baumannii) | MIC (Candida albicans)

Cn1c([N+](=O)[O-])cnc1C(=O)OC1CCCCC1
> 32 µg/mL: CC50 (HEK293) | MIC (Cryptococcus neoformans) | MIC (Staphylococcus aureus) | MIC (Escherichia coli) | MIC (Klebsiella pneumoniae) | MIC (Pseudomonas aeruginosa) | MIC (Acinetobacter baumannii) | MIC (Candida albicans)

Cn1c([N+](=O)[O-])cnc1C(=O)NC1CCCCC1
> 32 µg/mL: CC50 (HEK293) | MIC (Cryptococcus neoformans) | MIC (Staphylococcus aureus) | MIC (Escherichia coli) | MIC (Klebsiella pneumoniae) | MIC (Pseudomonas aeruginosa) | MIC (Acinetobacter baumannii) | MIC (Candida albicans)

From ChEMBL document CHEMBL4513134, “CO-ADD screening of University of Queensland (Australia) compounds” (2021)
